# Assay results reported in US11969459B2, “Therapeutic agent for cardiomyopathy, old myocardial infarction and chronic heart failure” (StemRIM Inc., priority 2017, dated 2024).
# Columns and labels:
# J2N-k hamsters [1] = experiment: Efficacy evaluation in dilated cardiomyopathy model (Example 1); assay type: in vivo, hamster
# Excerpt: J2N-k hamsters (18-week-old, male, 20 animals in total), which are model animals of dilated cardiomyopathy, were obtained from Japan SLC, acclimated for 2 weeks, and then used for experiments. J2N-k hamsters spontaneously develop dilated cardiomyopathy due to deletion mutations in the […] gene (specifically, cardiomyocyte shedding and fibrosis begin around 5 weeks of age, cardiomegaly and cardiac dysfunction appear at approximately 20 weeks of age, and eventually they die of congestive heart failure at approximately 1 year. J Biochem. 2003 August; 134(2):269-76). Also, a peptide consisting of amino acid residues 1-44 (SEQ ID NO: 1) of the human HMGB1 protein was chemically synthesized by a solid-phase method. Hereinafter, the peptide is referred to as the HMGB1 peptide (1-44), and is abbreviated as “1-44” in the drawing corresponding to the Examples.
# J2N-k hamsters were divided into the HMGB1 peptide (1-44)-treated (n=10) and PBS-treated (control, n=10) groups, and treatment was begun at 20 weeks of age (body weight about 120 g). Administration of the test substance was carried out by injecting a solution of the HMGB1 peptide (1-44), which has been adjusted to a concentration of 1 mg/ml with PBS as the vehicle, into the external jugular vein at a dose of 3 ml/kg (3 mg/kg as the peptide dosage) once a day for four consecutive days. In the control group, PBS was injected into the external jugular vein at a dose of 3 ml/kg once a day for four consecutive days. At 6 weeks after administration, a thoracotomy was performed under deep anesthesia, and the heart was removed. The mid portion of the heart was divided for cryopreservation and for paraffin fixation, and a histopathological examination was performed. Molecular biological studies were also performed using apical myocardium to evaluate effects of administration of the HMGB1 peptide (1-44).
# Echocardiography was performed prior to dosing, and at 4 and 6 weeks after dosing; and left ventricular end-diastolic diameter (LVDd), left ventricular end-systolic diameter (LVDs), and left ventricular ejection fraction (LVEF) were measured and calculated to perform a cardiac function assessment. […]
# Periodic Acid Schiff (PAS) staining of the myocardial tissue sections was performed to measure the short diameter of cardiomyocytes retaining a nuclear architecture, and the average of the measurements was obtained. This measurement was performed in five different fields and the mean value was calculated.
# Immunostaining of the myocardial tissue sections was performed using antibodies against PDGFRα and CD29, which are surface markers of mesenchymal stem cells, to assess whether accumulation of mesenchymal stem cells was observed. Staining of the nuclei was performed using DAPI. […]
# The structure of cardiomyocytes was observed by electron microscopy. Specifically, the full-thickness myocardium of the mid-portion was sampled, and subjected to pre-fixation with ½ Karnofsky, post-fixation with 2% osmium tetroxide, block-staining with 0.5% uranium acetate aqueous solution and dehydration with ethanol, and then embedded and polymerized by infiltrating epoxy resin (Queto1812). Ultrathin sections (70-110 nm) were made, and electron staining with uranium acetate and a lead stain solution was performed, and then observed by electron microscopy (H-7500, Hitachi High Technologies).
# [2] = tested on: old myocardial infarction model rats; experiment: Efficacy evaluation in old myocardial infarction model rats (Example 3); assay type: in vivo, SD rats
# Protocol: SD rats (7-week-old, male, body weight of approximately 250 g) were anesthetized with the inhalation anesthetic sevofrane (or isoflurane) and intubated endotracheally after adequate suppression was achieved, and deep anesthesia was maintained with the inhalation anesthetic. A thoracotomy was performed in the supine position at the left fourth intercostal space, and the proximal portion of the left anterior descending coronary artery was ligated with 6-0 prolene sutures to create a broad-area myocardial infarction model. The cardiac function was evaluated by echocardiography 2 weeks after the infarction was made, and cases in which extensive infarction was obtained (LVEF<50%) were used as old myocardial infarction model rats (17 animals in total). Similar to the above examples, the HMGB1 peptide (1-44) consisting of SEQ ID NO: 1 was used.
# The old myocardial infarction model rats were divided into the HMGB1 peptide (1-44)-treated group (n=9) and the PBS-treated group (control, n=8), and treatment was begun 2 weeks after the infarction was made. Administration of the test substance was carried out by injecting a solution of the HMGB1 peptide (1-44), which has been adjusted to a concentration of 1 mg/ml with PBS as vehicle, into the femoral veins at a dose of 3 ml/kg (3 mg/kg as the peptide dosage) once daily for four consecutive days. In the control group, PBS was injected at a dose of 3 ml/kg once a day via the femoral vein for four consecutive days. At 4 weeks after dosing, the heart was removed by re-thoracotomy under deep anesthesia. […] Both groups were comparatively studied using cardiac physiological, histopathological, and molecular biological techniques to evaluate the effects of administering the HMGB1 peptide (1-44). The condition after 2 weeks (14 days) or more have passed following the onset of myocardial infarction in model rats is equivalent to the condition after 30 days or more have passed following the onset of myocardial infarction in humans.
# Echocardiography was performed at 1, 2, and 4 weeks after dosing, and the left ventricular end-diastolic diameter (LVDd), left ventricular end-systolic diameter (LVDs), and left ventricular ejection fraction (LVEF) were measured and calculated to perform a cardiac function assessment.
# Myocardial tissue sections were stained with Sirius red, and the proportion of stain-positive area in the total area of the left ventricular myocardium was calculated as the percentage of fibrosis (%).
# Von-Willebrand factors were stained at the infarct border to determine the number of blood vessels (number of vascular endothelial cells). This measurement was performed in 10 different fields and the mean value was calculated.
# Periodic Acid Schiff (PAS) staining was performed at the infarct border, and the short diameter of cardiomyocytes retaining a nuclear architecture at the infarct border was measured, and the average of the measurements was obtained. This measurement was performed in 10 different fields and the mean value was calculated.
# Staining of the nuclei was performed using DAPI.
# [3] = tested on: Dahl salt-sensitive rats (DIS/Eis rats); experiment: Efficacy evaluation in hypertensive cardiomyopathy model (Example 4); assay type: in vivo, rat; details: High-1-44 vs High-PBS group
# Excerpt: The Dahl salt-sensitive rats (hereafter also referred to as DIS/Eis rats) were used in the experiments. DIS/Eis rats are hypertensive when fed with a high-salt diet and are a model that develop heart failure at a high incidence (e.g., when fed with a diet supplemented with 8% NaCl from 6 weeks of age, blood pressure reaches 250 mm Hg at 9 weeks of age, death begin to appear from 12 weeks of age, and death is highly probable by 16 weeks of age).
# Ten DIS/Eis rats (6-weeks-old, male, body weight about 200 g, Japan SLC) were prepared and divided into two groups, a high-salinity diet group (n=7) and a low-salinity diet group (n=3), and feeding was continued until 15 weeks of age in which the former was fed with a diet supplemented with 8% NaCl and the latter was fed with a diet supplemented with 0.3% NaCl. Aside from the meals, nothing interfered with free movement and they were kept clean and rested without restriction on drinking water, feeding, and such in their cages.
# At 11 weeks of age, the high-salinity diet group (n=7) was divided into the HMGB1 peptide (1-44)-treated group (n=3) and the control group (n=4), and treatment was initiated. Administration of the test substance was carried out by injecting a solution of the HMGB1 peptide (1-44), which has been adjusted to a concentration of 1 mg/ml with PBS as the vehicle, into the tail vein at a dose of 3 ml/kg (3 mg/kg as the peptide dosage) once daily for four consecutive days. The control group was injected with PBS at a dose of 3 ml/kg once a day via the tail vein for four consecutive days. Similar to the control group, the low-salinity diet group (n=3) also received PBS via the tail vein for four consecutive days. At 4 weeks after dosing (at 15 weeks, of age), hearts were removed from the rats by thoracotomy under general anesthesia, and their weight was measured, and then histological sections of the left ventricular myocardial cross sections were prepared at the papillary muscle level and subjected to histological analysis. In the following description, the HMGB1 peptide (1-44) administration group fed with a high-salinity diet is abbreviated as the “High-1-44 group”; the control group fed with a high-salinity diet is abbreviated as the “High-PBS group” and the low-salinity diet group is abbreviated as the “Low-PBS group”.
# At 15 weeks of age, hearts were removed from rats in each group and weighed. […]
# Myocardial tissue sections were stained with Sirius red, and the proportion of stain-positive area in the area of the whole heart or the left ventricle was calculated as the percentage of fibrosis (%).
# J2N-k hamsters [4] = experiment: Efficacy evaluation in dilated cardiomyopathy model, long-term observations (Example 2); assay type: in vivo, hamster; details: vs PBS group
# Protocol: As in Example 1, twenty J2N-k hamsters were prepared and divided into the HMGB1 peptide (1-44)-treated group (n=11) and the PBS-treated group (control, n=9), and treatment was begun at 20 weeks of age. Administration of the test substance was carried out by injecting a solution of the HMGB1 peptide (1-44), which has been adjusted to a concentration of 1 mg/ml with PBS as the vehicle, into the external jugular vein at a dose of 3 ml/kg (3 mg/kg as the peptide dosage) once daily for four consecutive days. In the control group, PBS was injected into the external jugular vein at a dose of 3 ml/kg once a day for four consecutive days. Evaluation of the cardiac function and survival rate was continued thereafter while rearing the hamsters under normal conditions.
# Echocardiography was performed prior to dosing, at 4 weeks after dosing, and every 2 weeks thereafter to measure LVEF.
# After the last dose, the animals were kept under normal conditions and the survival rate was evaluated.
# [5] = 4 and 6 weeks after dosing, 3 mg/kg i.v. x4 days, vs PBS group
# [6] = apical myocardium, vs PBS group
# [7] = 4 weeks after dosing, vs PBS group
# [8] = immunostaining of myocardial tissue
# [9] = infarct border, vs PBS group, P=0.05
substance,measurement,setting,value
"HMGB1 peptide (1-44): peptide consisting of amino acid residues 1-44 (SEQ ID NO: 1) of the human HMGB1 protein, chemically synthesized by a solid-phase method (MGKGDPKKPRGKMSSYAFFVQTCREEHKKKHPDASVNFSEFSKK)",left ventricular end-diastolic diameter (LVDd),J2N-k hamsters [1]; [5],no significant differences
same,left ventricular end-systolic diameter (LVDs),J2N-k hamsters [1]; [5],no significant differences
same,TSG-6 expression level (RT-PCR),J2N-k hamsters [1]; [6],significantly higher
same,VEGF expression level (RT-PCR),J2N-k hamsters [1]; [6],significantly higher
same,short diameter of cardiomyocytes (PAS staining),"J2N-k hamsters [1]; both subendocardial layer and mid layer, 6 weeks after administration, vs PBS group",significantly smaller
same,left ventricular ejection fraction (LVEF),"J2N-k hamsters [1]; echocardiography 4 and 6 weeks after dosing, 3 mg/kg external jugular vein once a day for four days, compared with PBS group",significantly higher
same,recruitment of cells positive for both PDGFRα and CD29 to the myocardial tissue,J2N-k hamsters [1]; immunostaining of myocardial tissue sections,recruited
same,number of PDGFRα-positive and CD29-positive cells in the myocardial tissue,"J2N-k hamsters [1]; immunostaining, vs PBS group",significantly more
same,mitochondrial cristae structure of cardiomyocytes (electron microscopy),J2N-k hamsters [1]; loss of cristae structure in PBS group,cristae structure was maintained
same,"number of blood vessels (anti-CD31 immunostaining), mid layer","J2N-k hamsters [1]; mid layer, 6 weeks after administration, vs PBS group",significantly higher
same,percentage of Sirius red stain-positive area (myocardial fibrosis),"J2N-k hamsters [1]; myocardial tissue sections 6 weeks after administration, vs PBS group",significantly smaller
same,"number of blood vessels (anti-CD31 immunostaining), subendocardial layer","J2N-k hamsters [1]; subendocardial layer, 6 weeks after administration, vs PBS group",tended to be higher
same,left ventricular ejection fraction (LVEF),"[2]; 4 weeks after dosing, 3 mg/kg femoral vein once daily for four days, begun 2 weeks after infarction, vs PBS group",significantly higher
same,left ventricular end-diastolic diameter (LVDd),[2]; [7],smaller values
same,left ventricular end-systolic diameter (LVDs),[2]; [7],smaller values
same,recruitment of cells positive for both PDGFRα and CD90 near the infarct border,[2]; [8],recruited
same,recruitment of cells positive for both PDGFRα and CD105 near the infarct border,[2]; [8],recruited
same,PDGFRα-positive and CD90-positive cells in the vicinity of the infarct border,"[2]; immunostaining, vs PBS group",more
same,number of vessels at the infarct border (von-Willebrand factor staining),[2]; [9],significantly more vessels
same,short diameter of cardiomyocytes at the infarct border (PAS staining),[2]; [9],significantly smaller
same,percentage of Sirius red stain-positive area (myocardial fibrosis),"[2]; left ventricular myocardium, 4 weeks after dosing, vs PBS group",significantly smaller
same,average improvement in LVEF with respect to before the dosing,[2]; up to 4 weeks after dosing,about 7%
same,end-diastolic left ventricular anterior wall thickness (LVAWd),[3]; 15 weeks of age,smaller
same,heart weight,"[3]; 15 weeks of age, high-salinity diet, 3 mg/kg tail vein once daily for four days from 11 weeks of age",smaller heart weights
same,percentage of fibrosis in the left ventricle,[3]; left ventricle,smaller
same,percentage of Sirius red-stained positive area (percentage of fibrosis) in the whole heart,[3]; whole heart,smaller
same,survival rate (viability),J2N-k hamsters [4]; long-term observations,tendency toward higher viability
same,"LVEF, long-term","J2N-k hamsters [4]; until 6 weeks after administration, 3 mg/kg i.v. x4 days",remained significantly higher
